Each structure is given as a SMILES string.

Assay [1] relates to QD3-sbl (DNA, G4) TTAGGTGGGTAGGGTGGGCTAGTCATTTTGACTAGG
Kind of assay: ITC. To be noted: K+ (20 mM potassium phosphate, 100 mM KCl; 120 mM K+), pH 7.0, 5% DMSO, 40 °C.

Assay [2] relates to Q3-sbl (DNA, G4) TTAGGGTGGTAGGGTGGGGAAGG
Kind of assay: ITC. The note with it: K+ (20 mM potassium phosphate, 100 mM KCl; 120 mM K+), pH 7.0, 5% DMSO, 40 °C.

In assay [3] the test system is D3-HP (DNA, hairpin) CTAGTCATTTTGACTAG
The assay is described as follows: ITC. The note with it: K+ (20 mM potassium phosphate, 100 mM KCl; 120 mM K+), pH 7.0, 5% DMSO, 40 °C.

Assay [4] relates to QD2-l (DNA, G4) GGTTGGCGCGAAGCATTCGCGGGTTGG
Kind of assay: ITC. To be noted: K+ (20 mM potassium phosphate, 100 mM KCl; 120 mM K+), pH 7.0, 5% DMSO, 40 °C, site 1 of 2.

For assay [5], the system named is D2-HP (DNA, hairpin) CGCGAAGCATTCGCG
The assay is described as follows: ITC. The note with it: K+ (20 mM potassium phosphate, 100 mM KCl; 120 mM K+); pH 7.0, 5% DMSO, 40 °C.

For assay [6], the system named is QD2-l-2bp (DNA, G4) GGTTGGCGGCACGGGTTGG
Kind of assay: ITC. The note with it: K+ (20 mM potassium phosphate, 100 mM KCl; 120 mM K+); pH 7.0, 5% DMSO, 40 °C; site 1 of 2.

Assay [7] has as its system TBA (DNA, G4) GGTTGGTGTGGTTGG
The assay is described as follows: ITC. The note with it: K+ (20 mM potassium phosphate, 100 mM KCl; 120 mM K+); pH 7.0, 5% DMSO, 40 °C.

In assay [8] the test system is QD2-l (DNA, G4) GGTTGGCGCGAAGCATTCGCGGGTTGG
The assay is described as follows: CD melting at 295 nm. To be noted: K+ (10 mM potassium phosphate), pH 7.0, 5 µM DNA, 1:1 ligand (5 µM), free Tm 50.3 °C.

The test system of assay [9] is Q3-sbl2 (DNA, G4) TTAGGTGGGTAGGGTGGGTGTG
Kind of assay: NMR titration. The note with it: K+ (10 mM potassium phosphate); pH 7.0, 30 °C, 0.75 mM DNA; stacks on 5'-tetrad.

In assay [10] the test system is QD3-sbl (DNA, G4) TTAGGTGGGTAGGGTGGGCTAGTCATTTTGACTAGG
The assay is described as follows: NMR titration and solution structure. The note with it: K+ (10 mM potassium phosphate for structure; 120 mM K+ for titration); pH 7.0, 30 °C titration; intercalation at quadruplex-duplex junction, slow exchange.

As for `CCN(CC)CCCNC(=O)c1ccc(-c2c3cccc(C)c3[n+](C)c3c2[nH]c2c(C)cccc23)cc1`, the Ka came out at 1.3e+07 ± 2.9e+06 M⁻¹ in assay [1] (site 1 of 2); 3.2e+06 ± 1.4e+06 M⁻¹ in [2] (site 1 of 2); 16000 ± 2200 M⁻¹ in assay [3]; 8.3e+06 ± 120000 M⁻¹ in assay [4] (Table S13 prints error 1.4×10^6); 45000 ± 14000 M⁻¹ in assay [5]; 7.1e+06 ± 77000 M⁻¹ in assay [6]. This compound also had a Ka in [7] of 26000 ± 8600 M⁻¹. In addition, in assay [8], the Tm increase was ~ 13 °C.

`CCOCCCNC(=O)c1ccc(-c2c3cccc(C)c3[n+](C)c3c2[nH]c2c(C)cccc23)cc1` registered a Ka in assay [4] of 2.6e+06 ± 700000 M⁻¹.

For the compound `CN(C)CCCNc1c2ccccc2nc2c1[nH]c1ccccc12`, the Ka was 1.1e+07 ± 3.3e+06 M⁻¹ in assay [1] (site 1 of 2), 2.1e+06 ± 610000 M⁻¹ in [2] (site 1 of 2) and 1.3e+06 ± 120000 M⁻¹ in [3] (site 1 of 2). In addition, the Tm increase in assay [8] was ~ 5 °C.

Turning to `CN(C)CCN1C(=O)c2ccc3c4c(ccc(c24)C1=O)C(=O)N(CCN(C)C)C3=O`, the Ka came to 120000 ± 25000 M⁻¹ in assay [1] (authors: competing sites may not be separated), 95000 ± 11000 M⁻¹ in [2] and 72000 ± 23000 M⁻¹ in assay [3].

In the case of `CN(C)c1ccc(Nc2c3ccc(NC(=O)CCN4CCCC4)cc3nc3cc(NC(=O)CCN4CCCC4)ccc23)cc1`, the Ka turned out to be 1.4e+07 ± 6.1e+06 M⁻¹ in assay [1] (site 1 of 2, authors: competing sites may not be separated); 3e+07 ± 2.3e+06 M⁻¹ in assay [2] (site 1 of 2); 2.9e+06 ± 690000 M⁻¹ in assay [3] (site 1 of 2).

Take `CN1C(=Cc2cc[n+](C)c3ccccc23)Sc2ccccc21`: the figures for the Ka in assay [1] (site 1 of 2), in [2] and in [3] were 1.1e+06 ± 27000 M⁻¹, 170000 ± 67000 M⁻¹ and 41000 ± 2700 M⁻¹, respectively.

For `C[n+]1cc(NC(=O)c2ccc3ccc4ccc(C(=O)Nc5cc6ccccc6[n+](C)c5)nc4c3n2)cc2ccccc21`, the binding result in [9] and in assay [10] was “yes” each time. Also, the Tm increase in assay [8] (complex 74 °C) was ~ 24 °C.

In the case of `Cc1cccc2c1[nH]c1c(-c3ccc(C(=O)NCCCN(C)CCCN)cc3)c3cccc(C)c3[n+](C)c12`, the Ka in assay [4] turned out to be 7.9e+06 ± 900000 M⁻¹.

For the origin of these results see PMC9723630 (2022).
